In data set [1] the test system is Subcutaneous Raji lymphoma xenograft. In words: In vivo anti-tumor efficacy study. Further details: species or system nude mice. To be noted: 10 mg/kg DOX i.v. days 0, 4, 8.
Method: Lymphoma xenograft mouse models were established by subcutaneously injecting 1×10^7 Raji lymphoma cells in a 100 μL of mixture of PBS and Matrigel (1:1 v/v) at the right flank in female nude mice.
The nature of data set [2]: Maximum tolerated dose (MTD) study. To be noted: mice, intravenous.
Data set [3] can be described thus: Toxicity monitoring in the therapeutic study (body weight, blood cell counts, serum chemistry, heart histology). It counts as in vivo, Raji tumor bearing mice. The protocol:
Subcutaneous Raji lymphoma xenograft mouse model was used to evaluate the therapeutic efficacy of different formulations of DOX. When tumor volume reached 150-300 mm^3, mice were intravenously administrated with PBS, DOX.HCl, Doxil®, or DOX-PEG^5k-CA4^αRh4^ε at the dose of 10 mg/kg DOX equivalent (MTD of free DOX) (n=5-8). The treatment was given every four day on days 0, 4 and 8 for total three doses. Tumor sizes were measured with a digital caliper twice per week. Tumor volume was calculated by the formula (L×W^2)/2, where L is the longest, and W is the shortest in tumor diameters (mm). To compare between groups, relative tumor volume (RTV) was calculated at each measurement time point (where RTV equals the tumor volume at given time point divided by the tumor volume prior to initial treatment). For humane reasons, animals were sacrificed when the implanted tumor volume reached 2000 mm^3, which was considered as the end point of survival data. At day 7 after the last dosage, blood samples were obtained from all the mice for the measurement of blood cell counts, hepatic or renal function tests (ALT, AST, and BUN), and serum enzyme markers of cardiotoxicity including creatine kinase (CK) and lactate dehydrogenase (LDH). One mouse from each group was also sacrificed, and its heart was submitted for histopathology evaluation.

The mark [4] stands for this setting: day 7 after last dosage, free DOX vs untreated mice, nanoformulations vs free DOX (P<0.05).

From patent US10406233B2, “Telodendrimers with enhanced drug delivery” (priority 2011, dated 2019) come the findings set out here.

Turning to `COc1cccc2c1C(=O)c1c(O)c3c(c(O)c1C2=O)C[C@@](O)(C(=O)CO)C[C@@H]3O[C@H]1C[C@H](N)[C@H](O)[C@H](C)O1.Cl` [free DOX, Doxorubicin hydrochloride], in data set [1], the median survival time came out at 32 days. For the same molecule, the “median RTV (relative tumor volume)” value in data set [1] (by day 28) turned out to be 9.9. Further, the MTD in data set [2] is listed as 10 mg/kg. Further, the body weight loss result in data set [3] (10 mg/kg DOX i.v. days 0, 4, 8) is listed as “significantly higher”. Besides, in data set [3] (setting [4]), the “serum level of CK” value was “significantly increased” and the “serum level of LDH” value is “significantly increased”. In addition, the WBC count result in data set [3] (day 7 after the last injection, compared to PBS control) is recorded as “significantly decreased”. The death entry in data set [3] (on day 16) is reported as “one death”.

Broadly, the MTD is the largest dose that counted as tolerated. High values mean a wide tolerated range, low ones a narrow tolerated range.
